Legend:
[1] = system: U2OS cells; assay: IncuCyte cell proliferation assay; type: cell-based
Description: Figure 4 Further cell-based assays with CU1 and CU2: (a, b) Representative immunofluorescence images of U2OS cells treated with HU (2.5 mM, 8 h) or cisplatin (10 μM, 8 h) in the presence or absence of CU1 (200 μM) or CU2 (500 μM). (c) Quantification of the number of FANCD2 foci in cells treated as in panels (a) and (b). Data accumulated over three independent experiments, each consisting of three technical replicas. (d) IncuCyte analysis of U2OS cells treated with or without carboplatin (15 μM) and CU2 (250 μM). Mean calculated from three wells, four images per well. (HU = DMSO + HU, cisplatin = DMSO + cisplatin).
Finally, to investigate if CU1 and CU2 could sensitize cells to a more clinically relevant chemotherapeutic agent, quantitative live cell analyses were performed using the IncuCyte platform. As the FA pathway is involved in the repair of ICLs, cells were treated with the ICL-inducing chemotherapeutic drug, carboplatin. For this experiment, U2OS cells were seeded at a relatively low (<10%) density and preincubated with CU1 or CU2 for 1 h. Carboplatin was then added to the cells and images were taken every 6 h for 8 days in order to monitor growth and proliferation of the cells.
Reaction mixtures were incubated for the indicated time at 37 °C and stopped by the addition of 2X reducing SDS -PAGE sample buffer, separated on NuPAGE Novex 4 –12% Bis/Tris gradient gels (Invitrogen) and visualized by Western blotting using the indicated antibodies (Table S3).
Cell culture. U2OS cells were cultured at 37 °C in a humidified atmosphere and 5% (v/v) CO2 in Dulbecco's Modified Eagle Medium (DMEM; Sigma-Aldrich) supplemented with 10% (v/v) fetal bovine serum (FBS), 100 units/ml of penicillin, […] of streptomycin and 292 μg/mL L-glutamine.
Cell extract preparation and immunoblotting. U2OS cells were lysed in buffer containing 50 mM Tris-HCl pH 7.5, 2% SDS, 10 mM NEM, cocktail protease inhibitor (Roche) and phosphatase inhibitor cocktail followed by sonication 100 µg of extracts were boiled for 5 mins at 95 °C in 5X loading buffer and loaded onto NuPAGE Novex 4–12% Bis/Tris gradient gels
(Invitrogen), or NuPAGE Novex 3-8% Tris/Acetate gradient gels (Invitrogen) for detection of mUb-FANCD2. After separation the gels were transferred to PVDF and the membranes were blocked with Tris-buffered saline containing 0.1% (v/v) Tween-20 (TBST) and 5% (v/v) bovine serum albumin (BSA) and incubated with the indicated primary and secondary antibodies. mUb-FANCD2 intensity was quantified using Image Studio (LI-COR).
IncuCyte cell proliferation assays. 2000 U2OS cells were seeded per well in 96-well plates and treated with compounds 24 hours afterwards. After 1 hour of compound treatment, 15 µM carboplatin (Sigma-Aldrich) was added and the cells were cultured in an incubator with an IncuCyte microscopy -platform (Essen BioScience). Phase -contrast images were acquired every 6 hours for 8 days until DMSO-carboplatin treated cells reached >80% confluence. Cell proliferation was monitored as the occupied area (% confluence) of cell images over time and calculated as percentage confluence over time. Cell confluency percentages were calculated using the integrated Cell Player software and results were analysed with Prism 6 (GraphPad Software).

[2] = system: T1, UBE2D1; assay: Gel-based ubiquitylation assay (UBE2D1/GST-FANCLRING), ubiquitylated UBE2D1 species; type: biochemical; settings: E2 = UBE2D1, E3 = GST-FANCLRING; 30 min at 37 °C
T1 construct: His6 (N); made in house; host or cells: E. coli Rosetta (DE3)
Description: Figure 2 Gel-based ubiquitylation assays with confirmed HTRF hits. […] Western blots (WB) probed for GST or biotin as labeled. Reactions contained 20 nM His6-UBE1, 50 nM E2, 250 nM GST-E3, 500 nM biotinylated ubiquitin: (a) E2 = UBE2T, E3 = GST-FANCLRING, 30 min of reaction at 37 °C; (b) E2 = UBE2D1, E3 = GST-FANCLRING, 30 min of reaction at 37 °C; and (c) E2 = UBE2D1, E3 = GST-RNF8, 10 min of reaction at 37 °C.
In order to explore the selectivity of CU1, CU2, CU9, CU10, and CU12, we conducted a counter-screen against other E2 and E3 combinations. Since members of the UBE2D family of E2s are known to ubiquitylate multiple substrates in vitro,[13] a ubiquitylation assay featuring UBE2D1 and GST-FANCLRING was performed. With UBE2D1, multiple ubiquitylated GST-FANCLRING species could be observed (Figure 2b).
Purified protein was concentrated using a Vivaspin-6 concentrator with a 10 kDa MW cut-off (Vivascience) and flash-frozen in small aliquots for storage at […]
Cy5 labelling of ubiquitin. […]
Homogeneous Time-Resolved Fluorescence (HTRF) Assay. […]
(v/v) DMSO. […] Signal was measured at λEx 340 nm and λEm 665 nm and 620 nm using a PHERAstar FS plate reader
(BMG Labtech). A ratio was calculated as [λEm(665)/λEm(620)] × 104 for each well and this was used to determine the percent inhibition for test compounds. […]

`NCCN1C(=O)CC[C@H]2CN(Cc3cccc(-c4ccco4)c3)CC[C@H]21` [CU1] was tested, and the “combined effect with carboplatin on cell growth” value ([1]; 50 μM CU1 with 15 μM carboplatin) was “far less pronounced than that observed for CU2” and the “concentrations that strongly inhibit cell growth” value ([1]; IncuCyte) was over 50 µM.

For `CCN1CCN(c2cc(C)nc3nc(CN4CCCCC4C)nn23)CC1` (stereo not shown) [CU2], the confluency ([1]; 250 μM CU2 combined with 15 μM carboplatin, after 8 days) was under 50%, the “effect on cell growth” value ([1]; CU2 250 μM alone) was “minimal effect on cell growth” and the confluency ([1]; CU2 250 μM alone, after 6 days) was 100%. For the same compound, the “effect on cells upon longer cellular exposures” value ([1]; CU2 500 μM, IncuCyte, up to 8 days) was “cytotoxic/cytostatic”.

In the case of `NC(=O)[C@@H]1CCCN1C(=O)c1cc(-n2cccc2)ccc1Cl` [CU12], the “formation of ubiquitylated UBE2D1 species” value [2] is reported as “prevented the formation of any ubiquitylated UBE2D1 species”.

— paper PMC6804243, “Small-Molecule Inhibition of UBE2T/FANCL-Mediated Ubiquitylation in the Fanconi Anemia Pathway” (ACS Chemical Biology, 2019)
